Source: patent publication US7645463B2, “Method for treating diabetic vascular complications” (National Yang-Ming University, priority 2006, dated 2010)
Marks after values point to notes of the source that are not given here.

System: Mouse Kupffer cell
Assay: Phagocytosis assay of Kupffer cell (FITC-beads ingestion)
Type: cell-based
Conditions: relative to control (2% FCS) = 1
Protocol: C57BL6/j mice were intraperitoneally (ip) injected with a mixture of Rompun® xylazine anesthesia and ketamin (S-(+)-ketamine) anesthesia mixed at a ratio of 1:3. The central vein of each mouse was cannulated with a polyethylene catheter, and the liver tissue was perfused with 10 ml Ca^2+-free HBSS buffer for 10 minutes at a perfusion rate of 1 ml/min, and HBSS buffer containing 0.05% collagenase type IV for 10 minutes at the perfusion rate of 1 mL/min to soften the liver tissue. The softened liver tissue was excised, rinsed and cut open by a pair of forceps to release cell suspension from the liver tissue. After the connective tissue was detached, the cell suspension was filtered with a #53 nylon mesh and centrifuged at 30 g for 3 minutes. The cell suspension was then centrifuged at 600 g for 5 minutes. The supernatant was discarded and the cell pellet was resuspended in 15 mL RBC lysis buffer and allowed a reaction to take place for 2 minutes. The cell suspension was added with 15 mL of RPMI 1640 medium and centrifuged, and the cell pellet was resuspended in 5 mL of RPMI 1640 medium and layered on top of a Percoll™ solution consisting of 25% (v/v) Percoll™ density gradient medium. The cell solution was centrifuged, and the cell pellet containing enriched Kupffer cells was collected. The enriched Kupffer cells were washed with RPMI 1640 medium and resuspended in serum-free RPMI 1640 medium.
Kupffer cells were seeded (4×10^5 cells/well) in a 96-well culture plate and cultured in RPMI medium supplemented with 10% FCS, also known as 10% FCS RPMI medium hereinafter, for at least 24 hours. The medium was changed to 2% FCS RPMI medium added with PH of different concentrations (1000 μg/mL, 100 μg/mL, 10 μg/mL and 1 μg/mL). […] FluoroQuench™ dye (0.5 μL/well) was added to quench the fluorescence from the […] 1 μm-sized FITC-beads. The fluorescence of the ingested 1 μm-sized FITC-beads was measured with a cytofluorometer after one hour and normalized with the fluorescence of the control group to determine the relative phagocytosis index as shown in Table 2.

With tuftsin the “Mouse Kupffer cell Ingestion phagocytosis Index” value (1 μg/ml) was 1.49**, the “Mouse Kupffer cell Ingestion phagocytosis Index” value (10 μg/ml) was 1.2* and the “Mouse Kupffer cell Ingestion phagocytosis Index” value (100 μg/ml) was 1.01.
